Reference: patent publication US20230016182A1, “EO/PO-MODIFIED 9-PHENYLACRIDINE PHOTOSENSITIZERS AND APPLICATION THEREOF” (Changzhou Tronly New Electronic Materials Co., Ltd., priority 2019, published 2023)

Assay: Photosensitizer solubility test in 2-butanone and PGMEA
Format: physicochemical
Settings: Test temperature 25° C.; for Solubility in 2-butanone: solvent 2-butanone
Description: Among them, 9-phenylacridine (denoted as C7, produced by CHANGZHOU TRONLY NEW ELECTRONIC MATERIALS CO., LTD.) was used for comparison.

COCCOCCOCCOc1ccc(-c2c3ccccc3nc3ccccc23)cc1 [Product C1]
Solubility in 2-butanone: 21.10 g

c1ccc(-c2c3ccccc3nc3ccccc23)cc1 [Product C7, 9-phenylacridine]
Solubility in 2-butanone: 0.74 g | Solubility in PGMEA (solvent PGMEA): 0.51 g
